# Where a name gives a salt, the structure may show the parent alone.
# What was measured:
# [1] = tested on: bradykinin-evoked Ca^2+ signals in hBASMCs; experiment: Bradykinin-evoked Ca2+ signals in populations of fluo-4-loaded hBASMCs; format: cell-based, human; conditions: cells treated with PTX 100 ng·mL^−1, 24 h; HBS
# Method: Two methods were used to measure [Ca^2+]i in populations of hBASMCs. For measurements using a FlexStation III plate-reader (Molecular Devices, Sunnyvale, CA, USA), hBASMCs were seeded into 96-well plates (10^4 cells per well). After about 4 days, when the cells were confluent, the medium was replaced with SMGM-2 without serum or growth factor supplements, and the cells were used after a further 24 h. […] Cells were washed with HEPES-buffered saline (HBS: 135 mM NaCl, 5.9 mM KCl, 1.2 mM MgCl2, 1.5 mM CaCl2, 11.6 mM HEPES, 11.5 mM D-glucose, pH 7.3), and loaded with fluo-4 by incubation with fluo-4-AM (2 μM) in HBS (100 μL per well) containing pluronic F127 (0.02%, v/v) and probenecid (2.5 mM). After 1 h at 20 °C, the medium was replaced with HBS (100 μL per well) containing probenecid (2.5 mM). After a further incubation at 20 °C for 1 h, the medium was replaced with HBS (60–80 μL per well) or nominally Ca^2+-free HBS, and the cells were used immediately for experiments at 20 °C. […] Drug additions (20 μL at 4 or 5 times the final concentration) were added automatically. Fluorescence from fluo-4 (excitation 485 nm, emission 525 nm) was recorded at 1.44-s intervals using Softmax Pro 5.4 (Molecular Devices). Fluorescence was calibrated to [Ca^2+]i from: [Ca^2+]i=KDCa×(F−Fmin/Fmax−F) where, KDCa is the equilibrium dissociation constant of fluo-4 for Ca^2+ (345 nM), F is the recorded fluorescence, and Fmin and Fmax are the fluorescence values recorded after addition of triton-X-100 (0.1%, v/v) with either BAPTA (10 mM, Fmin) or CaCl2 (10 mM, Fmax). […] Fmax was determined for each well at the end of an experiment, and the average value was used for each column of 8 wells. Fmin was determined from parallel wells on each plate.
# For measurements of [Ca^2+]i using an FDSS 7000 FLIPR (Hamamatsu), hBASMCs were seeded into 384-well plates (8000 cells per well) in 20 μL of SMGM-2 containing 5% serum. […] The exact composition of this ‘no-wash’ indicator kit is not disclosed by the manufacturer, but it contains fluo-4-AM and components that reduce background fluorescence. […]
# [2] = tested on: intracellular cAMP in hBASMCs; experiment: Intracellular cAMP in hBASMCs by [3H]-adenine labeling; format: cell-based, human; conditions: isoproterenol 10 μM, sustained incubation; [3H]-adenine labeling
# Method: hBASMCs in 24-well plates (50,000 cells per well) were grown to confluence. The medium was then replaced with serum-free SMGM-2, and after 24 h this was supplemented with [^3H]-adenine (1 μCi per well, 18.4 Ci·mmol^−1). After 2 h at 37 °C in humidified air with 5% CO2, the medium was removed, and the cells were washed twice with HBS. The cells were stimulated at 20 °C in HBS. Incubations were terminated by removal of the medium, addition of ice-cold trichloroacetic acid (5%, 1 mL) and rapid freezing. This protocol ensured that only intracellular [^3H]-cAMP was detected. [^3H]-adenine nucleotides were separated by column chromatography, and the activity was determined by liquid scintillation counting using Ultra-gold scintillant. Results are presented as [^3H]-cAMP activity as a percentage of the sum of the activities of the fractions containing [^3H]-cAMP, [^3H]-ATP, [^3H]-ADP and [^3H]-AMP; henceforth, reported as [^3H]-cAMP (%).
structure (smiles),measurement,setting,value
"CC(C)NC[C@H](O)c1ccc(O)c(O)c1 [isoproterenol, (−)-isoproterenol hydrochloride]",effect on the Ca2+ signals evoked by bradykinin after pertussis toxin,[1],remained insensitive to isoproterenol
same,stimulated cAMP concentration after 30 min relative to after 1 min,[2],2.8 fold
